# Assay results taken from US20070218531A1, “Micro-Organism and a Method of Producing Paclitaxel by the Use of the Same” (HAIYI BIOTECH PTE LTD, priority 2004, published 2007).
# Test system: breast cancer cells
# Test: In vitro bioactivity analysis: killing of cancer cells by minimal MTT method
# Format: cell-based
# Settings: culture medium RPMI-1640 containing 2% calf serum, compared with paclitaxel standard sample
# Excerpt: FIG. 10 is the chart of the effects of paclitaxel sample made by the method of present invention and standard paclitaxel sample on the killing percentage against […] cells by minimal MTT method by the use of culture medium RPMI-1640 containing 2% calf serum.
# In vitro bioactivity analysis of the fermented paclitaxel show high efficacy on killing breast cancer cells.
smiles,measurement,setting,value
"CC(=O)O[C@H]1C(=O)[C@@]2(C)[C@H]([C@H](OC(=O)c3ccccc3)[C@]3(O)C[C@H](OC(=O)[C@H](O)[C@@H](NC(=O)c4ccccc4)c4ccccc4)C(C)=C1C3(C)C)[C@]1(OC(C)=O)CO[C@@H]1C[C@@H]2O [fermented paclitaxel, 5β, 20-epoxy-1,2α,4,7β 10β 13α-hexahydroxy-tax-11-en-9-one-4,10-diacetate-2-benzoate-13-ester with (2R, 3S)-N-benzoyl-3-phenyl isoserine]","efficacy on killing breast cancer cells (killing percentage, FIG. 10)",,high efficacy
same,"efficacy on killing breast cancer cells (killing percentage, FIG. 10)",listed as paclitaxel from Examples 20-24,same effects as paclitaxel standard samples
